Experimental data: patent US7705016B2, “Regulation of food intake by modulation of long-chain fatty acyl-CoA levels in the hypothalamus” (Albert Einstein College of Medicine of Yeshiva University, priority 2003, dated 2010)

Legend:
hypothalamic NPY mRNA = experiment: Hypothalamic NPY expression after ICV OA (northern blot); assay type: in vivo, rat; details: 30 nmol ICV bolus
Experimental: NPY Expression Studies. For analysis of NPY expression, we studied two groups of rats, HF55 and HF140. After three days on the respective diet regimen, ICV Vehicle (10% HPB in aCSF) or ICV OA (30 nmol) was injected as a bolus into the third cerebral ventricle one hour before the start of the dark cycle. Food was withdrawn and hypothalami were harvested 16 hrs following injection. Northern Blot Analysis. Total RNA was isolated from hypothalami and liver with Trizol (Invitrogen Corp., California, USA). NPY, Glc-6-Pase or PEPCK expression was measured by northern blot analysis. Hypothalamic RNA was analyzed using probes for prepro-NPY and β-actin. To assess the effect of ICV OA on the expression of hepatic enzymes, total RNA was isolated from freeze-clamped liver tissues from rats subjected to insulin clamp studies. Glc-6-Pase and PEPCK cDNA were obtained as previously described (Combs et al., 2001; Massillon et al., 1996; 1998). Probes were labeled with [α-^32P] dCTP using a random primer kit (Stratagene). Quantification was performed by scanning densitometry, normalizing for β-actin signal and 18S ribosomal RNA to correct for loading variabilities.

CPT1L = target: T1, CPT1L (Rattus norvegicus, UniProt P32198); experiment: LC-CoA levels in hypothalamic nuclei by HPLC after ICV CPT1 inhibitor; assay type: in vivo; details: ICV administration
T1 construct: from tissue; host or cells: hypothalamus (arcuate nucleus) of male Sprague-Dawley rats, in vivo or ex vivo
T1 sequence (P32198 1-773): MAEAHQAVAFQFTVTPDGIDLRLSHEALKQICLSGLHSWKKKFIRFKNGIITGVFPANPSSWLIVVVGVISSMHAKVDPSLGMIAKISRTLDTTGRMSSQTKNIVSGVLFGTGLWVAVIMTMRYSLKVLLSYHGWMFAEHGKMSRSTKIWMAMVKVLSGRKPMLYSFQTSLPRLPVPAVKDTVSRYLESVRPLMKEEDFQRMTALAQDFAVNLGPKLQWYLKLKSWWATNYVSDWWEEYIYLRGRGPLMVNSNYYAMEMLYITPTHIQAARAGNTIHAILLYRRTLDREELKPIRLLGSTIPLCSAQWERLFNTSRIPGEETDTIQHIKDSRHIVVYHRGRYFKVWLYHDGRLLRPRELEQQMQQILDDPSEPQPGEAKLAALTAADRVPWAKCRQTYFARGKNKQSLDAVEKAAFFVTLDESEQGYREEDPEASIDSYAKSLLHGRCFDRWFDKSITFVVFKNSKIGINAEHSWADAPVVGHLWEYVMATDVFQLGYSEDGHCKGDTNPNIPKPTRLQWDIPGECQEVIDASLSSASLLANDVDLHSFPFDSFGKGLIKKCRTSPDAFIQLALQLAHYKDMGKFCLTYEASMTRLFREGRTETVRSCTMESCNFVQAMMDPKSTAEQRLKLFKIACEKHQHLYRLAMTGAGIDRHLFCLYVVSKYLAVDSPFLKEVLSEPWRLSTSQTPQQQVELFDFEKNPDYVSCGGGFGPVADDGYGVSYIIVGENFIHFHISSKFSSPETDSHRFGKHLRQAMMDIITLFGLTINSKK
Experimental: Surgical implantation of ICV cannulae was performed on day 1 (˜3 weeks prior to the in vivo study). Full recovery of body weight and food intake was achieved by day 7. Rats randomized for ribozyme treatment received an ICV injection of CPT1L-Ribo, CPT inhibitors or controls on day 17. The experimental group treated with TDGA received ICV injection of the inhibitor on day 21, 6 hr prior to the harvesting of brains. Panels B. and C. show quantitation of CPT1L (B) and CPT1M (C) mRNA by real-time PCR. RNA was purified from individual hypothalamic nuclei (PVN, LHA, and arcuate), which were obtained by micro punch technique 3 days after ICV injection of pTarget control (▪; N=4) or CPT1LRibo (□; N=5). Copy number of CPT1 mRNA is normalized to β-Actin copy number ×10^6. Panels D. and E. show CPT1 activity in individual arcuate nuclei (D) or whole hypothalamus (E). Brains were harvested 6 hr or 3 days […] the ICV injection of TDGA or CPT1L-Ribo respectively, and arcuate nuclei were punched out. CPT1 activity was measured in the particulate fraction of protein extracts from animals treated with ICV control injections (▪; N=6, receiving aCSF+2% DMSO or Control Ribo), TDGA ( ?; N=6), or CPTL-Ribo (□; N=5). Panels F and E establish that ICV administration of CPT1 inhibitors increases levels of LC-CoAs in arcuate. Levels of stearoyl-CoA (F) and oleyl-CoA (E) respectively were measured by HPLC in arcuate of rats injected ICV with control compound (▪; ST1340) or ST1326 (□).
ICV catheters were implanted in male Sprague-Dawley rats by stereotaxic surgery (Obici et al., 2002a; Obici et al., 2001; Liu et al., 1998). The biochemical or molecular analyses, the metabolic or the feeding experiments were performed ˜3 weeks later following complete recovery from the operation (FIG. 2a). CPT1L-Ribo was delivered ICV three days prior to experimental tests (FIG. 2a). […] Thus, we next measured CPT1 activity in ARC and in whole hypothalamus. […]

Row | Oleyl-CoA levels in ARC (CPT1L) | stearoyl-CoA levels in ARC (CPT1L) | Other LC-CoAs (CPT1L; data not shown) | SMILES | suppression of hypothalamic NPY mRNA expression (hypothalamic NPY mRNA; 55-kcal/d group, overnight fast) | decrease in hypothalamic NPY mRNA (hypothalamic NPY mRNA; three days of voluntary overfeeding (HF140), fasted)
1 |  |  |  | CCCCCCCC/C=C\CCCCCCCC(=O)O [OA, oleic acid] | ~60% | 28%
2 | marked increase | marked increase | significantly increased | CCCCCCCCCCCCCCNC(=O)N[C@H](CC(=O)[O-])C[N+](C)(C)C [ST1326, (R)-N-(tetradecylcarbamoyl)-aminocarnitine] |  | 
